In ChEMBL document CHEMBL1208715, “Cyclic amide bioisosterism: strategic application to the design and synthesis of HCV NS5B polymerase inhibitors” (Bioorg Med Chem Lett, 2010):

Columns and labels:
[1] = Inhibition of HCV GT1b NS5B polymerase; set-up: species or system Hepacivirus hominis
[2] = Inhibition of wild type HCV GT1b NS5B polymerase; set-up: species or system Hepacivirus hominis
[3] = target: RNA-directed RNA polymerase (Hepacivirus hominis, UniProt O39930, L419M); assay: Inhibition of HCV NS5B polymerase L419M mutant
Sequence of RNA-directed RNA polymerase (Hepacivirus hominis, UniProt O39930, L419M) (O39930 entry or part of it L419M): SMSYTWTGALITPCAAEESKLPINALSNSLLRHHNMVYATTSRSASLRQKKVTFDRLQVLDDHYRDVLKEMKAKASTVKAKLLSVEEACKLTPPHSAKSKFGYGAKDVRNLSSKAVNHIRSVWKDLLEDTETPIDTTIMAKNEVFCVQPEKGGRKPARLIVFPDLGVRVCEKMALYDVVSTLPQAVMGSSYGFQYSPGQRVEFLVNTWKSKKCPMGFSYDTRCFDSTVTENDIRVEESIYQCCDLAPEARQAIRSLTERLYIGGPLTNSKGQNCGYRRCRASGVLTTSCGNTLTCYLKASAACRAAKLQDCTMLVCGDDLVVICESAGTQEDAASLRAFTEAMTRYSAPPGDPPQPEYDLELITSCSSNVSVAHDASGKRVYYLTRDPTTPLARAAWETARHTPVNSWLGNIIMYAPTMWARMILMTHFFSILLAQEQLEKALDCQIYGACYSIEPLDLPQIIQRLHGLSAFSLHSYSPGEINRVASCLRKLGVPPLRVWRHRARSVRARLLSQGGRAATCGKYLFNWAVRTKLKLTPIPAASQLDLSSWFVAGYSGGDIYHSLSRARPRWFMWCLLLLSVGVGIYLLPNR

Hepatitis C virus = assay: Antiviral activity against […] Con1 GT1b infected in HuH7 cells by replicon assay; assay type: functional, Hepacivirus hominis; conditions: Huh-7
[4] = Cytotoxicity against human HuH7 cells by WST-1 assay; assay type: cell-based, Huh-7
[5] = target: RNA-directed RNA polymerase (Hepacivirus hominis, UniProt O39930, M414T); assay: Inhibition of HCV NS5B polymerase M414T mutant
Sequence of RNA-directed RNA polymerase (Hepacivirus hominis, UniProt O39930, M414T) (O39930 entry or part of it M414T): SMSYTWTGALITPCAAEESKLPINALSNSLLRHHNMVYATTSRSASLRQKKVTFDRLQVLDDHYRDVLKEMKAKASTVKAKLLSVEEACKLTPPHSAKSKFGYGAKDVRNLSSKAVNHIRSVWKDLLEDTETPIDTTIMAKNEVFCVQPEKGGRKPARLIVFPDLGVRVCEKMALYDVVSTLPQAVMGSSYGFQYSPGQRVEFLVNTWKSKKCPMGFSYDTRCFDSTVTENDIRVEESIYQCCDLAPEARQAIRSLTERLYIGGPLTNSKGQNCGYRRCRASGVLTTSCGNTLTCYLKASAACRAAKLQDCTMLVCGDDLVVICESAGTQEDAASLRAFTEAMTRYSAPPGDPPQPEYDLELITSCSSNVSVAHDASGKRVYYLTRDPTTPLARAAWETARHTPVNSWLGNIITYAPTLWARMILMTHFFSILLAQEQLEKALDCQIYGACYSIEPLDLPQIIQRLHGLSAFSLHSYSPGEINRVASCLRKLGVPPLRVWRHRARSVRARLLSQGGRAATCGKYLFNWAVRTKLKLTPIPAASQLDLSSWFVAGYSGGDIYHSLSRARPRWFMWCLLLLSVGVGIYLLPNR

IC50 [1] [nM] | Structure (SMILES) | also measured
32000 | C[C@H]1CC[C@H](c2cc(-c3cc(-c4ccccc4)sc3C(=O)O)on2)CC1 | 
3300 | Cc1ccc(-c2cc(=O)[nH]nc2-c2cc(-c3ccccc3)sc2C(=O)O)cc1 | 
620 | Cc1ccc(-c2cc(=O)[nH]n2-c2cc(-c3ccccc3)sc2C(=O)O)cc1 | 
92000 | O=C(O)c1sc(-c2ccccc2)cc1-c1cc(=O)[nH]nc1-c1ccccc1 | 
17000 | O=C(O)c1sc(-c2ccccc2)cc1-c1cnnn1-c1ccccc1 | 
74 | O=C(O)c1sc(-c2ccccc2)cc1-c1conc1C1CCCCC1 | 
2500 | Cc1ccc(-c2nocc2-c2cc(-c3ccccc3)sc2C(=O)O)cc1 | 
340 | O=C(O)c1sc(-c2ccccc2)cc1-c1cnnn1C1CCCCC1 | 
2600 | O=C(O)c1sc(-c2ccccc2)cc1-c1conc1-c1ccc(Cl)cc1 | 
110 | C[C@H]1CC[C@H](c2nocc2-c2cc(-c3ccccc3)sc2C(=O)O)CC1 | 
16000 | CCCCOc1ccccc1-c1cc(-c2ccccc2)sc1C(=O)O | 
42 | C[C@H]1CC[C@H](c2ccccc2-c2cc(-c3ccccc3)sc2C(=O)O)CC1 | EC50 (Hepatitis C virus): 12000 nM; CC50 [4]: 20000 nM
29000 | O=C(O)c1sc(-c2ccccc2)cc1-c1conc1-c1ccccc1 | 
170 | CC1CCC(=Cc2ncccc2-c2cc(-c3ccccc3)sc2C(=O)O)CC1 (stereo unspecified) | 
22 | C[C@H]1CC[C@H](c2ncccc2-c2cc(-c3ccccc3)sc2C(=O)O)CC1 | 
5700 | O=C(O)c1sc(-c2ccccc2)cc1-c1conc1-c1ccc(F)cc1 | 

Structure (SMILES) | IC50 [1] [nM] | also measured
Cc1ccc(-n2nncc2-c2cc(-c3ccccc3)sc2C(=O)O)cc1 | 110 | Kd [2]: 4320 nM; Kd [3]: 23100 nM; EC50 (Hepatitis C virus): > 30000 nM; CC50 [4]: > 30000 nM; Kd [5]: 3990 nM
CC(C)N(c1cc(-c2ccccc2)sc1C(=O)O)C(=O)[C@H]1CC[C@H](C)CC1 | 28 | Kd [2]: 41 nM; Kd [3]: 427 nM; EC50 (Hepatitis C virus): 230 nM; CC50 [4]: 48000 nM; Kd [5]: 33 nM
C[C@H]1CC[C@H](n2nncc2-c2cc(-c3ccccc3)sc2C(=O)O)CC1 | 100 | Kd [2]: 860 nM; Kd [3]: 4480 nM; EC50 (Hepatitis C virus): 15000 nM; CC50 [4]: > 50000 nM; Kd [5]: 597 nM
